# Assay results from patent publication US20250057808A1, “COMPOSITION COMPRISING BETA LACTAM FOR TREATING ALCOHOL DEPENDENCE AND ALCOHOL ASSOCIATED DISEASES OR CONDITIONS” (Temple University of the Commonwealth System of Higher …, priority 2023, published 2025).
# “Also recorded” adds a separate entry of the source.
# Columns and labels:
# [1] = tested on: GLT-1; experiment: GLT-1 expression in mPFC subregions IL and PL (further studies, 100 mg/kg); format: in vivo, Male P rats; settings: MC-100093 100 mg/kg i.p. 5 days
# Procedure: We used micro-punch procedure to dissect the subregions of the NAc such as NAc-core and NAc-shell as well as the subregions of prefrontal cortex such as infralimbic (IL) and prelimbic (PL) from the brain on day 6 after the last injection day. P rats were removed from the cage and rapidly euthanized by CO2 inhalation followed by rapid decapitation with a guillotine. Brains were isolated and immediately frozen on dry ice and stored at −80° C. The stereotaxic coordinates provided by Paxinos and colleague's rat brain stereotactic atlas was used to isolate NAc-core and NAc-shell using a cryostat apparatus (−20° C.), which then kept at −80° C. for later western blot analyses.
# Western Blot assay was performed to measure changes in the expression of GLT-1, xCT, mGluR1, mGluR5, PPAR-α, PPARγ, GAPDH and β-tubulin in the NAc-core and NAc-shell as described in previous publications. A lysis buffer containing protease and phosphatase inhibitors was used to generate a homogenate of liver, Nac-core, and Nac-shell samples. The amount of protein was quantified using a detergent compatible protein assay (Bio-Rad, Hercules, CA, USA) for each sample. Samples were mixed with laemmli dye and loaded with equal amounts on polyacrylamide gels (10%), which separated the proteins using electrophoresis. […]
# [2] = tested on: BDNF; experiment: Western blot BDNF in subregions of mPFC and NAc; format: in vivo, Male P rats
# Procedure: All P rats were euthanized by CO2 inhalation and decapitated with a guillotine 24 hours after the final i.p. injection was administered on Day 6 of Week 6. Brains were removed and immediately frozen on dry ice and stored at −80° C. The mPFC subregions (infralimbic cortex and prelimbic cortex) and NAc subregions (core and shell) were dissected using a cryostat machine kept at −20° C. Surgical blades were used to dissect all brain regions following visualized landmarks using the stereotaxic coordinates provided by Paxinos and colleague's rat brain stereotactic atlas. All brain regions were stored in −80° C. Western Blot analyses.
# Western blot was performed to determine the expression of BDNF, TNF-α, RAGE, HMGβ-1, and β-tubulin in the subregions of mPFC and NAc as preformed in previous studies.
# Brain samples were lysed with a lysing buffer containing protease inhibitors. The amount of protein in each sample was quantified using a detergent compatible protein assay (Bio-Rad, Hercules, CA, USA). Polyacrylamide gels (10%) were loaded with the lysate mixture, and proteins were separated using gel electrophoresis for 1 hour. Proteins were then transferred from the gels onto Polyvinylidene difluoride (PVDF) membranes (BioRad). After transfer, membranes were incubated for 30 minutes in a mixture of nonfat milk in 1×Tris-buffered saline with Tween-20 (TBST) at room temperature. Membranes were then incubated at 4° C. for 24 hours with primary antibodies: anti-rabbit BDNF (1:1000, Abeam, #ab108319), anti-rabbit TNF-α (1:500, Abeam, #ab9739), anti-rabbit HMGβ-1 (1:500, Abeam, #ab18256), and anti-rabbit RAGE (1:1000, Abeam, #ab37407). Anti-mouse-β-tubulin (1:1000, Cell Signaling Technology, #D71G9) was used as a loading control antibody. After incubating for 24 hours, secondary antibody such as donkey anti-rabbit (1:4000, Invitrogen, #31458) or anti-mouse (1:4000, Cell Signaling, #7076S) was added to the membrane for 1 hour at room temperature. The membranes were then washed with 1×TBST three times for 5 minutes each and then dried. Membranes were then incubated in chemiluminescent reagents (Super Signal West Pico, Pierce Inc.) for 2 minutes. Blot images were developed using ChemiDoc. Imaging System and ImageJ software version 1.53a were used to quantify and analyze the expression of BDNF, TNF-α, RAGE, HMGβ-1, and β-tubulin.
# The data for the water/saline control group were expressed as 100% based on the values corresponding to the ethanol/saline and ethanol/MC-100093 groups for each set of blotting. Thus, the expression of selected proteins for each group (ethanol/saline group or ethanol/MC-100093 group) was calculated relative to the water/saline control group being set to 100%.
# Statistical analyses were performed using GraphPad Prism Version 10. Two-way repeated measures ANOVA followed by Bonferroni post-hoc tests were used to compare water and ethanol intake, and body weight, amongst water group, ethanol/saline group and ethanol/MC-100093 group. A one-way ANOVA test was performed to compare the expression of the studied proteins in selected brain regions in water/saline, ethanol/saline and ethanol/MC-100093 groups. Statistical significance was determined by a p-value of or less than 0.05.
# [3] = tested on: gram-positive and gram-negative bacteria; settings: cited from earlier work
# [4] = human liver microsomes in vitro; cited from earlier work
# [5] = ethanol/MC-100093 group (100 mg/kg i.p.) compared to water/saline and ethanol/saline groups
smiles,measurement,setting,value
C[C@@H](O)[C@H]1C(=O)N[C@@H]1[C@@H](C)C(=O)N1CCN(C)CC1 [MC-100093],GLT-1 expression in the prelimbic frontal cortex (PL),[1]; vs control/saline and ethanol/saline,increased GLT-1 expression in both subregions of mPFC; also recorded: non-statistically significant increase of GLT-1 expression; also recorded: upregulated the expression of GLT-1
same,GLT-1 expression in the infralimbic prefrontal cortex (IL),[1]; vs ethanol/saline,increased GLT-1 expression in both subregions of mPFC; also recorded: significantly higher levels of GLT-1 expression; also recorded: increased the expression of GLT-1; also recorded: upregulated GLT-1 expression
same,BDNF expression in the NAc shell,"[2]; 100 mg/kg i.p., compared to ethanol/saline group",significant increase in BDNF expression
same,Increase in BDNF expression in the NAc core,"[2]; 100 mg/kg i.p., compared to water/saline and ethanol/saline groups",11%
same,Increase in BDNF expression in the IL (mPFC),[2]; [5],40%
same,Increase in BDNF expression in the PL (mPFC),[2]; [5],27%
same,BDNF expression in the subregions of NAc and mPFC (summary),"[2]; male P rats, 100 mg/kg i.p., 100 mg/kg",attenuated ethanol-induced downregulation of brain derived neurotrophic factor (BDNF) expression
same,Antimicrobial / antibiotic activity,[3],without any antibiotic action; also recorded: no antibiotic activity; also recorded: no antibiotic actions; also recorded: lacking the antibacterial properties; also recorded: lacks antimicrobial activity; also recorded: does not have any antibiotic action
same,Stability in liver microsomes,[4],high stability
